Experimental data from publication PMC4979471 (Cell Death Discovery, 2015).
Entries after “also recorded” stand apart in the source; their conditions may differ. Read-outs that look alike come from different tables or passages of the source.

What was measured:
[1] = system: human monocytic U937 cells; experiment: TNF+zVAD-induced necroptosis, CellTiter-Glo; assay type: cell-based; conditions: U-937, U937, overnight, read-out: IC50 blocking necroptosis
Description: (§1) Mouse fibrosarcoma L929 cells (ATCC# CCL-1) and human monocytic U937 cells (ATCC# CRL-1593.2) were cultured in RPMI media supplemented with 10% heat-inactivated FBS, 100 U/ml penicillin and […] streptomycin. BMDM were prepared from C57BL/6 mice by differentiation with 10 ng/ml M-CSF (R&D Systems) for 7 days and cultured in DMEM medium supplemented with 10% heat-inactivated FBS, 100 U/ml penicillin, 100 μg/ml streptomycin and 0.25 μg/ml amphotericin. Primary human neutrophils were isolated from human blood following the standard method comprised of sequential sedimentation in dextran, density centrifugation in Ficoll–Hypaque and lysis of contaminating red blood cells.
(§2) […] To evaluate the effect of RIP1 inhibitors, cells were pretreated with compound (dose–response) for 30 min. Induced cell death was evaluated 19–21 h later by measuring cellular ATP levels using CellTiter-Glo Luminescent Cell Viability assay (Promega, Fitchburg, WI, USA). To induce necroptosis in neutrophils, freshly isolated human neutrophils were stimulated with TNF (10 ng/ml), QVD-Oph (50 μM) and SMAC mimetic (100 nM). Induced cell death was evaluated as above.

[2] = system: mouse fibrosarcoma L929 cells; experiment: TNF+zVAD-induced necroptosis, CellTiter-Glo; assay type: cell-based; conditions: overnight, read-out: IC50 blocking necroptosis
Description: as §1, §2

[3] = system: primary human neutrophils; experiment: TNF, zVAD and SMAC mimetic-induced necroptosis, CellTiter-Glo; assay type: cell-based; conditions: Neutrophil, read-out: IC50 blocking necroptosis
Description: as §1
Necroptotic cell death was induced in BMDM, L929 and U937 cells with TNF in the presence of caspase inhibitor zVAD-FMK or QVD-Oph (BMDM: 50 ng/ml TNF+50 μM zVAD; L929: 100 ng/ml TNF+50 μM QVD; U937: 100 ng/ml TNF+25 μM QVD). To evaluate the effect of RIP1 inhibitors, cells were pretreated with compound (dose–response) for 30 min. Induced cell death was evaluated 19–21 h later by measuring cellular ATP levels using CellTiter-Glo Luminescent Cell Viability assay (Promega, Fitchburg, WI, USA). […] Induced cell death was evaluated as above.

BMDM = experiment: TNF+cycloheximide-stimulated apoptosis (cell viability, Caspase 3/7); assay type: cell-based, mouse; conditions: 100 nM
Description: Caspase 3/7 activity was measured at 6 h using the Caspase-Glo 3/7 assay (Promega).

JAK3 = biological target: T1, JAK3 (Homo sapiens, UniProt P52333); experiment: Kinase selectivity, P33-radiolabeled assay; assay type: biochemical; conditions: 10 μM ATP
T1 construct: purchased Reaction Biology Corp
T1 sequence (P52333 1-1124): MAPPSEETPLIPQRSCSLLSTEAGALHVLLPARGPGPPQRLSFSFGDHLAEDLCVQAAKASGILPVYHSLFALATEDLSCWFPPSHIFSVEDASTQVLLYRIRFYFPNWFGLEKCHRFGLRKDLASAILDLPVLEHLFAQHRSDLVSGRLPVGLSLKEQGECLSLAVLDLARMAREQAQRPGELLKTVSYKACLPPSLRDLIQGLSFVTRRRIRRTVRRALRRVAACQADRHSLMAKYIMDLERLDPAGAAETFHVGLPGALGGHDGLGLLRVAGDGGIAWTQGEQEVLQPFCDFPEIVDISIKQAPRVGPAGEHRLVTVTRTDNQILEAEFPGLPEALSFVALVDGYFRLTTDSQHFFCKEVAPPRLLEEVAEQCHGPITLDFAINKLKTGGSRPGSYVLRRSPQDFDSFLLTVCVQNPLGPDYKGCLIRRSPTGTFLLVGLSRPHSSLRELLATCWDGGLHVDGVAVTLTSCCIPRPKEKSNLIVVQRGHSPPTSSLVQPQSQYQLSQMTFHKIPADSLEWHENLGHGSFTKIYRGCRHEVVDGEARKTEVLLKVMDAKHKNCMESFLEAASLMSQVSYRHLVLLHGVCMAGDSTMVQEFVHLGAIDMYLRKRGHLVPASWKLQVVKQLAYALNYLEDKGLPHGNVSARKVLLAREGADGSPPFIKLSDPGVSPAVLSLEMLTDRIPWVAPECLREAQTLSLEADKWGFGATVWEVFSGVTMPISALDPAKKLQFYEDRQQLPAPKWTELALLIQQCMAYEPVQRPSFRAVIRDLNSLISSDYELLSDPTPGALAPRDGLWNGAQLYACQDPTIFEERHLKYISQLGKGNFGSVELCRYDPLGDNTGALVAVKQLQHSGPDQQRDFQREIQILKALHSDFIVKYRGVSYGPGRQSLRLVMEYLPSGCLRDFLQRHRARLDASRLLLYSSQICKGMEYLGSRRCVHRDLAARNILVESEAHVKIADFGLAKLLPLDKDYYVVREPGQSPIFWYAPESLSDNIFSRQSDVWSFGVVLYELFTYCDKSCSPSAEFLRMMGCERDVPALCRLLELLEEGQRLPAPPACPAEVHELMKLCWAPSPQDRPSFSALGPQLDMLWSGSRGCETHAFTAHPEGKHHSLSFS
Method in brief: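 Reactions contained 10 μM ATP and 10 μM test compound, each run in duplicate. Kinase activity is expressed as a percentage of DMSO-treated controls.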

339 kinases = system: 339 kinases
Description: The compound was tested at a single dose in duplicate at 10 μM. Reactions were carried out at 10 μM ATP. Data are reported as % enzyme activity (relative to DMSO controls). The full data set is shown in the Supplementary Table I.

C57BL/6 mice = experiment: TNF+zVAD-induced shock model (temperature loss); assay type: in vivo, mouse; conditions: 15 min before TNF+zVAD
Description: Temperature was monitored over the course of 3 h by rectal probe.

human and murine cells = experiment: RIP1-dependent cell death, summary statements; assay type: cell-based; conditions: read-out: IC50 inhibiting RIP1-dependent cell death
Description: Necroptotic cell death was induced in BMDM, L929 and U937 cells with TNF in the presence of caspase inhibitor zVAD-FMK or QVD-Oph (BMDM: 50 ng/ml TNF+50 μM zVAD; L929: 100 ng/ml TNF+50 μM QVD; U937: 100 ng/ml TNF+25 μM QVD). To evaluate the effect of RIP1 inhibitors, cells were pretreated with compound (dose–response) for 30 min. Induced cell death was evaluated 19–21 h later by measuring cellular ATP levels using CellTiter-Glo Luminescent Cell Viability assay (Promega, Fitchburg, WI, USA). To induce necroptosis in neutrophils, freshly isolated human neutrophils were stimulated with TNF (10 ng/ml), QVD-Oph (50 μM) and SMAC mimetic (100 nM). Induced cell death was evaluated as above.

## CC(C)(C)C(=O)N1N=CC[C@H]1c1ccccc1 [GSK′963]
[1]
  IC50: 4 nM
[2]
  IC50: 1 nM
[3]
  IC50: 0.9 nM
BMDM
  effect on TNF+CHX-stimulated apoptosis: no measurable effects; also recorded: no effect
JAK3; read-out: % Enzyme Activity (relative to DMSO controls) AVG
  remaining activity at 10 µM: 106%
JAK3; read-out: % Enzyme Activity (relative to DMSO controls) Data 1
  remaining activity at 10 µM: 105%
JAK3; read-out: % Enzyme Activity (relative to DMSO controls) Data 2
  remaining activity at 10 µM: 106%
339 kinases; 10μM, Reaction Biology Corporation
  activity against 339 human kinases: does not block the activity of any
339 kinases; 10 μM, panel of 339 kinases
  inhibition against all other kinases tested: < 50%
C57BL/6 mice; 0.2 mg/kg i.p.
  protection from TNF+zVAD-induced temperature loss: significant response
C57BL/6 mice; 2 mg/kg i.p.
  protection from TNF+zVAD-induced temperature loss: completely inhibit temperature loss; also recorded: complete protection
Human and murine cells
  IC50: 1 to 4 nM
